Results reported in patent US20110184147A1, “ENZYME SUBSTRATE FOR LABELING OF PROTEIN” (priority 2008, published 2011).
“Also recorded” adds a separate entry of the source.

Assays:
[1] = system: BSA (antigen); experiment: Antigen recognizing ability by ELISA (rabbit-derived anti-BSA IgG antibody); assay type: binding; conditions: rabbit-derived anti-BSA IgG antibody (polyclonal) modified by MTG
Protocol: A study was made on samples that were prepared by introducing a fluorescent substrate (FITC-ε-Acp-QG or FITC-β-Ala-QG) into a rabbit-derived anti-BSA IgG antibody (polyclonal) under the same conditions as in Experiment 2-2.
ELISA was performed by the following procedure (FIG. 3-5). • 1) To a Black Plate, 5 mg/ml of BSA (antigen) was added in an amount of 150 µl/well and left to stand overnight at 37° C. • 2) The product of 1) was washed with PBST five times. • 3) Modified anti-BSA IgG antibodies were added in an amount of 60 µl/well and left to stand at room temperature for 5 hours. • 4) The product of 3) was washed with PBST five times. • 5) Examination was made with a fluorescent imager. • 6) A […] sample of AP-labeled anti-rabbit IgG IgG antibodies were added in an amount of 150 µl/well and left to stand at 37° C. for 3 hours. • 7) The product of 6) was washed with TBST five times. • 8) The substrate was added and 10 minutes later, fluorescence derived from the enzymatic reaction was examined with a fluorescent imager.

[2] = target: T1, MTG (Streptomyces mobaraensis, UniProt P81453); experiment: MTG-catalyzed binding reaction of fluorescent substrate with β-casein; assay type: biochemical, microbial; conditions: substrate 1 mM, β-casein 0.5 mg/ml, MTG 1 U/ml, phosphate buffer pH 7, overnight 27° C.
T1 construct: purchased AJINOMOTO (supplied as a gift)
T1 sequence (P81453 77-407): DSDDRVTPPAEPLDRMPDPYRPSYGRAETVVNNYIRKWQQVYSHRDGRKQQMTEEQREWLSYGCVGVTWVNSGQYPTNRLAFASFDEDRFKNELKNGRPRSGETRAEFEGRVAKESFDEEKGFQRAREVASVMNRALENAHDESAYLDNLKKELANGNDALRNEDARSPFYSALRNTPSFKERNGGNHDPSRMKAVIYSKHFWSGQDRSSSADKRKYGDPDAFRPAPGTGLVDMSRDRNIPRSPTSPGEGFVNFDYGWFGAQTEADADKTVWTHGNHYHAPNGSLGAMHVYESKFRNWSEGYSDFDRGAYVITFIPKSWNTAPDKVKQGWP
Protocol: To perform a binding reaction, FITC-β-Ala-QG, β-casein and GTG were added to 50 mM HEPES (5 mM NaCl, 10 mM CaCl2, pH 7.4) to give respective final concentrations of 1 mM, 0.5 mg/ml and 0.2 U/ml and the resulting mixture was left to stand overnight at 27° C. Two comparative samples were prepared; one was a GTG-free sample and the other was prepared by performing an MTG-catalyzed reaction. For the MTG-catalyzed binding reaction, FITC-β-Ala-QG, β-casein and MTG were added to a 10 mM phosphate buffer (pH 7) to give respective final concentrations of 1 mM, 0.5 mg/ml and 1 U/ml and the resulting mixture was left to stand overnight at 27° C. Tracing on the sample after the reaction was performed by the same procedure as in Experiment 2-2.

[3] = target: T1, MTG; experiment: MTG-catalyzed introduction of fluorescent substrates into NK6-AP (SDS-PAGE, fluorescent imager); assay type: biochemical, microbial
Protocol: To perform a binding reaction, the fluorescent substrate (FITC-ε-Acp-QG, FITC-β-Ala-QG, Flc-QG, TR-β-Ala-QG or Dns-ε-Acp-QG), NK6-AP and MTG were added to 10 mM Tris-HCl (pH 8) to give respective final concentrations of 1 mM, 0.5 mg/ml and 1 U/ml and they were thoroughly agitated and the resulting solution was left to stand overnight at 4° C. For the purpose of comparison, an MTG-free sample was prepared.
After the reaction, the samples were subjected to SDS-polyacrylamide gel electrophoresis (SDS-PAGE). The gel from SDS-PAGE was examined with a fluorescent imager before it was stained with Coomassie Brilliant Blue (CBB) in solution. For the sample containing Dns-ε-Acp-QG, examination was made with a transilluminator.
A study was made using FITC-β-Ala-QG as a fluorescent substrate. The reaction conditions for introducing FITC-β-Ala-QG into NK6-AP were as follows: FITC-β-Ala-QG, NK6-AP and MTG were added to 10 mM Tris-HCl (pH 8) to give respective final concentrations of 0.1 mM, 0.5 mg/ml and 0.1 U/ml and they were thoroughly agitated at 4° C. for 0-5 hours. To trace the binding, the gel from SDS-PAGE was analyzed by a fluorescent imager.
A study was made using FITC-β-Ala-QG as a fluorescent substrate. The reaction conditions for introducing FITC-β-Ala-QG into NK6-AP were as follows: FITC-β-Ala-QG, NK6-AP and MTG were added to 10 mM Tris-HCl (pH 8) to give respective final concentrations of 1-1000 μM, 0.5 mg/ml and 0.1 U/ml and they were thoroughly agitated at 4° C. for 15 minutes. Tracing on the sample after the reaction was performed by the same procedure as in Experiment 2-4.
Dns-β-Ala-QG-biotin, NK6-AP and MTG were added to 20 mM Tris-HCl (pH 8) to give respective final concentrations of 100 μM, 0.5 mg/ml, and 1 U/ml. For the purpose of comparison, an MTG-free sample was prepared. The ingredients were thoroughly agitated and the resulting solution was left to stand overnight at 4° C. for reaction.
After the reaction, the samples were subjected to SDS-polyacrylamide gel electrophoresis (SDS-PAGE). The gel from SDS-PAGE was examined with a transilluminator before it was stained with Coomassie Brilliant Blue (CBB) in solution.
To a 50 mM buffer whose pH was varied over the range of from 5 to 9, FITC-β-Ala-QG, NK6-AP and MTG were added to give respective final concentrations of 0.1 mM, 0.5 mg/ml, and 0.1 U/ml. These ingredients were well stirred and left to stand at 4° C. for reaction. After 6-hr or 15-minute reaction, the sample was mixed with a sample buffer and heated at 95° C. for 15 minutes to stop the reaction. Thereafter, SDS-polyacrylamide gel electrophoresis (SDS-PAGE) was applied. The gel from SDS-PAGE was stained with Coomassie Brilliant Blue (CBB) and observed with a fluorescent imager.
To 50 mM Tris-HCl (pH 8), FITC-β-Ala-QG, NK6-AP and MTG were added to give respective final concentrations of 0.1 mM, 0.5 mg/ml, and 0.001-1 U/ml. These ingredients were well stirred and left to stand at 4° C. for reaction. The reaction was stopped and evaluation was made by the same procedures as in Experiment 2-2.
To 50 mM Tris-HCl (pH 8), FITC-β-Ala-QG-alkyne, NK6-AP and MTG were added to give respective final concentrations of 0.1 mM, 0.5 mg/ml, and 0.1 U/ml. For the purpose of comparison, a MTG-free sample was also prepared. Both samples were well stirred and left to stand at 4° C. for reaction. The reaction was stopped and evaluation was made by the same procedures as in Experiment 2-2.

[4] = NK6-AP 0.5 mg/ml, MTG 0.1 U/ml, pH 8, 4° C., 15 minutes

Question: For `NC(=O)CCC(NC(=O)CCNC(=S)Nc1ccc(-c2c3ccc(=O)cc-3oc3cc(O)ccc23)c(C(=O)O)c1)C(=O)NCC(=O)O` (stereo not drawn) [FITC-β-Ala-QG], which “Antigen recognizing ability of modified antibody” value [1] is on record?
Answer: The value was “maintained its antigen recognizing ability”.

Question: And the “Fluorescence intensity of MTG lane compared with GTG lane” value [2]?
Answer: Its value is “higher fluorescence intensity”.

Question: And the “pH range with comparable levels of fluorescent intensity (reaction saturated)” value ([3]; 6-hr reaction, pH 5 to 9, substrate 0.1 mM, MTG 0.1 U/ml, 4° C.)?
Answer: The value was 5-8.

Question: And the “pH of rapid introduction into NK6-AP” value ([3]; 15-min reaction, pH 5 to 9, substrate 0.1 mM, MTG 0.1 U/ml, 4° C.)?
Answer: Its value is “rapid introduction was achieved at pH values of 6 and 8”.

Question: And the “Maximum substrate concentration at which reaction progressed” value [3, 4]?
Answer: The value was 1 mM.

Question: What about the “Minimum substrate concentration at which reaction progressed and detection was possible” value [3, 4] of the same compound?
Answer: Its value is 1 µM.

Question: And the “Degree of introduction into NK6-AP at 1 U MTG” value ([3]; NK6-AP, substrate 0.1 mM, pH 8, 4° C.)?
Answer: Its value is “did not drop”.

Question: What about the “MTG concentration at which an adequately rapid reaction proceeded” value ([3]; NK6-AP, substrate 0.1 mM, pH 8, 4° C., MTG 0.001-1 U/ml) of the same compound?
Answer: The value was 0.1 U.

Question: And the “Reactivity of MTG for fluorescent substrate (introduction into NK6-AP)” value ([3]; substrate 1 mM, NK6-AP 0.5 mg/ml, MTG 1 U/ml, 10 mM Tris-HCl pH 8, overnight 4° C.)?
Answer: The value was “served as substrates of MTG; also recorded: recognizable as a substrate of MTG”.
